Experimental data: patent publication US20100305036A1, “COMBINATION OF PROTEIN TYROSINE PHOSPHATASE INHIBITORS AND HUMAN GROWTH HORMONE FOR THE TREATMENT OF MUSCLE ATROPHY AND RELATED DISORDERS” (priority 2007, published 2010)

Experiments:
[1] = system: C2C12 myotubes; assay: C2C12 myotube diameter; assay type: cell-based
Text: C2C12 cells can be obtained from the American Type Tissue Culture Bank and propagated in standard growth media containing 10% horse serum. When cells reached 70% confluency the media is changed to differentiation media containing 2% horse serum. Three days after start of differentiation multinucleated myotubes should be present, with visible striations, indicating differentiation. hGH can be used as a positive control for activating the IGF-1 receptor, or alternatively, combined with a PTP1B inhibitor to assess synergistic or additive effects. Consequently, PTP1B inhibitors and/or hGH can be added to the media for various times.
Myotube Diameter Myotube diameter can be assessed 24 hours after addition of PTP1B inhibitor and/or hGH to myotube media. Cells are washed in saline and fixed in gluteraldehyde. Images can be obtained on an inverted microscope using the green fluorescent channel to visualize the auto-fluorescence induced by the gluteraldehyde fixation. Images are printed out at standard magnification and the sixty largest myotubes measured at their largest diameter (as previously published). The fifty largest myotubes in each group can be statistically compared using the Kruskal-Wallis One Way Analysis on Ranks. Differences are considered significant if p<0.05 and designated by an asterisk in FIG. 1. […]

[2] = system: AKT phosphorylation; settings: hGH treatment of C2C12; cited from earlier work

IGF1: human insulin-like growth factor1 or IGF1, however formulated or stabilized
myotube hypertrophy ([1]; IGF1 alone added to C2C12 myotubes media at 10 ng/ml): significantly hypertrophied

hGH: Human Growth Hormone, can be purchased from Bachem H-3148
AKT phosphorylation [2]: cause AKT phosphorylation | C2C12 myotube diameter ([1]; hGH alone): significant increase
